The values that follow are results of earlier work, collected in patent publication US9149493B2, “Compositions for bowel cleansing and use thereof” (ALFA WASSERMANN SPA, priority 2011, dated 2015).

The conditions of the data set: administered alone; eliminated unchanged in urine.

On to “citric acid and sodium citrate [citrates]”, for which the “absorption of citrates in the small intestine” value is reported as “almost entirely absorbed”.
